Data published in publication PMC11054337, “Identification of Leishmania donovani PEX5-PTS1 Interaction Inhibitors through Fluorescence Polarization-Based High-Throughput Screening” (Molecules, 2024).
Several values for one entry are separate records, joined by “and”; a condition that tells them apart may be missing. Equal entries are not always repeated. Where two headings read alike, the source gives them in different places. No end group written: not given here.

Legend:
[1] = test system: L. donovani promastigotes; assay: L. donovani promastigote growth inhibition (resazurin); type: cell-based, Leishmania donovani; conditions: for IC50: 72 h exposure, three independent replicates, read-out: L. donovani IC50 ± SD
Method: (§1) All the restriction enzymes used in this study were sourced from New England BioLabs (240 County Road Ipswich, Ipswich, MA, USA). The PTS1 peptides, both unlabeled and fluorescently labeled at the N-terminus with fluorescein isothiocyanate (FITC), were purchased from Peptron (Daejeon, Republic of Korea). All the inhibitors were purchased from Enamine (Kyiv, Ukraine). L. donovani strain MHOM/SD/62/1S-CL2D and L. major strain LV39 (MRHO/Sv/59/P) were cultured in their extracellular promastigote forms. The parasite was cultured at 28 °C using M199 medium (Sigma-Aldrich, St. Louis, MO, USA) supplemented with 40 mM HEPES, 0.1 mM adenine, 0.0001% biotin, and 4.62 mM NaHCO3, along with additional supplements of hemin and xanthine. The T. brucei brucei Lister strain 427 in its bloodstream form (BSF) was cultured at 37 °C in a controlled atmosphere consisting of 5% CO2 in HMI-9 medium enriched with 10% fetal bovine serum (FBS), 100 µg/mL penicillin, and 100 µg/mL streptomycin. The parasites were maintained through only 10 passages for this study.
(§2) Briefly, the assays were conducted in 384-well plates, each well was seeded with 5 × 10^4 parasites, and the compounds were exposed for 72 h. The compounds were tested in dose-diluted format, starting from 100 μM with a two-fold dilution across 10 points. Subsequently, resazurin was added to each well to achieve a final concentration of 200 μM. The plates were then incubated for an additional 5 h before fixation. The assay results were recorded using a Victor3 plate reader (PerkinElmer, Shelton, CT, USA). For the assessment against L. donovani intracellular amastigotes, phorbol 12-myristate 13-acetate-treated THP-1 cells were seeded at 0.8 × 10^4 cells per well in a 384-well plate in RPMI-1640 complete medium supplemented with 10% FBS. After 48 h, the infection was carried out using L. donovani promastigotes with a multiplicity of infection of 10:1. The infected cells were treated with compounds for 72 h, then the cells and parasites were washed, stained with 5 µM 4′,6-diamidino-2-phenylindole (DAPI), and fixed with 4% paraformaldehyde. Images were acquired using Operetta® CLS™ (PerkinElmer, Shelton, CT, USA), and the numbers of parasites and host cells were quantified using Columbus™ software version 2.8 (PerkinElmer, Shelton, CT, USA).
(§3) All half-maximal inhibitory concentration (IC50) values were determined based on data obtained from three independent experiments. The dose–response curves were generated and analyzed using GraphPad Prism 6 software (GraphPad Software, San Diego, CA, USA). For the analysis, a sigmoidal dose–response equation was employed, incorporating a variable hill slope option.

L. major promastigotes = assay: L. major promastigote growth inhibition (resazurin); type: cell-based, Leishmania major; conditions: for IC50: 72 h exposure, three independent replicates, read-out: L. major IC50 ± SD
Method: as §1, §2, §3

T. brucei BSF = T. brucei BSF growth inhibition (resazurin); type: cell-based, Trypanosoma brucei; conditions: for IC50: Trypanosoma brucei, blood stream form, 72 h exposure, three independent replicates, read-out: T. brucei IC50 ± SD; for Growth inhibition of T. brucei (in words): BSF
Method: as §1, §2, §3

LdPEX5-PTS1 interaction = biological target: T1, LdPEX5-PTS1 interaction (Leishmania donovani, UniProt A0A3S7X906); assay: biochemical; type: binding; conditions: 1 µM LdPEX5, 5 nM FITC-SGAGSKL
T1 construct: encoding LdPEX5CT, corresponding to 322 amino acids (AF198051.1: 303-625), was synthesized; 6xHis (pET15b) (N); made in house; host or cells: Escherichia coli BL21 (DE3)
T1 sequence (A0A3S7X906 entry or part of it): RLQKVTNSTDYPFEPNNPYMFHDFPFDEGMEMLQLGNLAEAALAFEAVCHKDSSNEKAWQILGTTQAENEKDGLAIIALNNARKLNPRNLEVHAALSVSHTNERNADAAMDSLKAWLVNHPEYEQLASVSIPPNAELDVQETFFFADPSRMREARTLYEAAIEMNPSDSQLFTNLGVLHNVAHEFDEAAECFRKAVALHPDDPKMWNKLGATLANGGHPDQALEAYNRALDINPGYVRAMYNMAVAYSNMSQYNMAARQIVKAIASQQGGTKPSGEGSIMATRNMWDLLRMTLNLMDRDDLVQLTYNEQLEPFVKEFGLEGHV
Method: HTS using FP was conducted to identify inhibitors of the LdPEX5-PTS1 interaction. The screening utilized an in-house compound library comprising 51,406 compounds with diverse structural profiles. All compounds were initially solubilized in 100% DMSO with a concentration of 2 mM, and the final testing concentration in the assay was set at 20 μM. DMSO served as the negative control, while unlabeled PTS1 peptide (TRYPAKL) was used as the positive control. The assay mixture included FITC-SGAGSKL peptide and LdPEX5 at final concentrations of 5 nM and 1 μM, respectively. The reaction plates with compounds were incubated for 1 h at room temperature before FP signal detection. Single-point inhibition assays were performed, and the Z’ factor was employed to assess the quality of the assay. The Z’ factor was calculated using the formula Z′ = 1 − 3(σp + σn)/(μp − μn), where σp and σn are the standard deviations of the positive and negative controls, respectively, and μp and μn represent their respective mean values.
as §3

[2] = test system: L. donovani intracellular amastigotes; assay: L. donovani intracellular amastigote assay in THP-1 cells (image-based); type: cell-based, Leishmania donovani; conditions: infected THP-1 cells, 72 h treatment
Method: as §2

[3] = 1 h, three independent replicates, read-out: LdPEX5-PTS1 Inhibition IC50 ± SD
[4] = IC50 of unlabeled PTS1 peptides, peptide from 60 µM half dilution 10 points

IC50 ([1]; Leishmania donovani, 72 h)	IC50 (L. major promastigotes; Leishmania major, 72 h)	IC50 (T. brucei BSF)	IC50 (LdPEX5-PTS1 interaction; [3])	Compound	also measured
3.3 ± 0.23 µM	> 50 µM	> 50 µM	~16 µM and 16.2 µM	O=C(Nc1nc2ccccc2nc1N1CCCC1)c1ccc(Cn2cccn2)cc1 [P10, 4-((1H-pyrazol-1-yl)methyl)-N-(3-(pyrrolidin-1-yl)quinoxalin-2-yl)]	Growth inhibition of L. major (in words) (L. major promastigotes): not active; Activity against intracellular amastigote form of Leishmania [2]: inactive; Growth inhibition of T. brucei (in words) (T. brucei BSF): not active
> 50 µM	> 50 µM	> 50 µM	~16 µM and 16.9 µM	Cc1ccc(C(=O)Nc2nc3ccccc3nc2N2CCCC2)cc1S(C)(=O)=O [P16]	Growth inhibition of L. major (in words) (L. major promastigotes): not able to inhibit the growth; Growth inhibition of T. brucei (in words) (T. brucei BSF): not able to inhibit the growth; Growth inhibition of L. donovani (in words) [1]: not able to inhibit the growth
> 50 µM	> 50 µM	> 50 µM	25.2 ± 0.89 µM	Cc1cc(C(=O)Nc2cc(C(N)=O)ccc2N2CCCCC2)c2c(C)noc2n1 [P17]	
19.2 ± 2.65 µM	12.2 ± 1.36 µM	3.06 ± 0.38 µM	16.5 ± 0.79 µM	CNc1ccc(Nc2ncnc3sccc23)cn1 [P20, N^2-methyl-N^5-(thieno [2,3-d]pyrimidin-4-yl)pyridine-2,5-diamine]	Growth inhibition of L. major (in words) (L. major promastigotes): inhibitory activity; IC50 (L. major promastigotes): 19.2 ± 2.65 µM; Activity against intracellular amastigote form of Leishmania [2]: inactive; Growth inhibition of T. brucei (in words) (T. brucei BSF): inhibitory activity; Growth inhibition of L. donovani (in words) [1]: inhibitory activity; IC50 [1]: 12.2 ± 1.36 µM
> 50 µM	> 50 µM	> 50 µM	24.5 ± 1.05 µM	CCc1ncc2c(n1)CN(Cc1cc(=O)n3cccc(C)c3n1)CC2 [P21]	
> 50 µM	> 50 µM	> 50 µM	16 ± 0.96 µM	CCOc1ccc(NC2CCN(Cc3cscn3)CC2)cn1 [P28]	
		0.69 ± 0.05 µM		N=C(N)c1ccc(OCCCCCOc2ccc(C(=N)N)cc2)cc1 [Pentamidine, reference compound]	

The next lines start with the compound.

Compound	IC50 ([1]; Leishmania donovani, 72 h)	IC50 (L. major promastigotes; Leishmania major, 72 h)	IC50 (T. brucei BSF)	IC50 (LdPEX5-PTS1 interaction; [3])	also measured
C[C@@H]1[C@H](O)[C@@H](C)/C=C/C=C/C=C/C=C/C=C/C=C/C=C/[C@H](O[C@@H]2O[C@H](C)[C@@H](O)[C@H](N)[C@@H]2O)C[C@@H]2O[C@](O)(C[C@@H](O)C[C@@H](O)[C@H](O)CC[C@@H](O)C[C@@H](O)CC(=O)O[C@H]1C)C[C@H](O)[C@H]2C(=O)O [Amphotericin B, reference compound]	0.42 ± 0.03 µM				
CCCCCCCCCCCCCCCCOP(=O)([O-])OCC[N+](C)(C)C [Miltefosine, reference compound]		7.37 ± 1.67 µM			
CN(C)c1ccc(Nc2cnc3ccccc3n2)cn1 [P02]	> 50 µM	> 50 µM	> 50 µM	23.6 ± 0.86 µM	
Cn1ncc(-c2nc3cc(S(N)(=O)=O)ccc3[nH]2)n1 [P04, 2-(2-methyl-2H-1,2,3-triazol-4-yl)-1H-benzo[d]imidazole-5-sulfonamide]	> 50 µM	> 50 µM	12.1 ± 2.19 µM	14.6 ± 0.76 µM	
COc1ccc(NC(=O)C2(S(=O)(=O)c3ccc(Cl)cc3)CCCC2)cn1 [P08, 1-((4-chlorophenyl)sulfonyl)-N-(6-methoxypyridin-3-yl)cyclopentane-1-carboxamide]	> 50 µM	> 50 µM	> 50 µM	3.89 ± 0.15 µM	
ARLASKV [ARLASKV, reference compound]					IC50 (LdPEX5-PTS1 interaction; [4]): > 60 µM
SGAGSKL [SGAGSKL, reference compound]					IC50 (LdPEX5-PTS1 interaction; [4]): 10.7 µM
TRYPAKL [TRYPAKL, reference compound]					IC50 (LdPEX5-PTS1 interaction; [4]): 3.61 µM
